What is called Ki is a dissociation constant, usually derived from enzyme kinetics or from competition with a known ligand.

Some results are limits rather than exact numbers.

We go through 18 compounds from patent publication EP1203770A1 (priority 1992, dated 1994).

In this assay the target is T1, HIV-1 protease (Human immunodeficiency virus type 1 group M subtype B, UniProt P04585).
T1 construct: The protease (or proteinase), consisting of only 99 amino acids, is among the smallest enzymes known
As to the kind of experiment: In vitro HIV protease inhibitory assay (HIV Protease FITC Assay). The following applies: for inhibition at 0.123 µM: HIV-1 Dose 0.123 uM; for inhibition at 0.123 µM / inhibition at 0.37 µM / inhibition at 1.1 µM / inhibition at 3.3 µM / inhibition at 10 µM / inhibition at 30 µM / inhibition at 100 µM: read-out: HIV-1 Protease % Inhib; for inhibition at 0.37 µM: HIV-1 Dose 0.370 uM; for inhibition at 1.1 µM: HIV-1 Dose 1.100 uM; for inhibition at 3.3 µM: HIV-1 Dose 3.300 uM; for inhibition at 10 µM: HIV-1 Dose 10.000 uM; for inhibition at 30 µM: HIV-1 Dose 30.000 uM; for inhibition at 100 µM: HIV-1 Dose 100.000 uM; for Ki: read-out: HIV-1 FITC Ki. Type of assay: biochemical. In a few lines:
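Biotin/FITC-labelled peptide substrate cleaved by HIV-1 protease for 1 h at room temperature in the dark, in 0.1 M sodium acetate pH 5.5, 1.0 M NaCl, 0.05% NP-40. Uncleaved substrate captured on avidin beads and separated by filtration; fluorescence gave % inhibition.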

As to `CCC(CC1CCCCN1S(=O)(=O)c1ccc(C)cc1)c1cc(O)c(C(c2ccccc2)C2CC2)c(=O)o1` (stereo not shown) [Example 140, 2-[2-(3-(Cyclopropylphenylmethyl)-4-hydroxy-2-oxo-2H-pyran-6-yl]butyl]-1-[(4-methylphenyl)sulfonyl]-piperidine], the inhibition at 0.123 µM is under 10%, the inhibition at 0.37 µM stood at 10.5%, the inhibition at 1.1 µM turned out to be 38.6% and the inhibition at 3.3 µM worked out at 70.2%. Besides, the inhibition at 10 µM was found to be 81.6% and the inhibition at 30 µM came out at 77.1%.

Consider `CCC(CC1CCN(S(=O)(=O)c2ccc(C)cc2)CC1)c1cc(O)c(C(c2ccccc2)C2CC2)c(=O)o1` (stereo not shown) [Example 141, 4-[2-[3-(Cyclopropylphenylmethyl)-4-hydroxy-2-oxo-2H-pyran-6-yl]butyl]-1-[(4-methylphenyl)sulfonyl]-piperidine], for which the inhibition at 0.123 µM is under 10%, the inhibition at 0.37 µM is under 10%, the inhibition at 1.1 µM is under 10% and the inhibition at 3.3 µM is under 10%. Further, the inhibition at 10 µM stood at 11.2% and the inhibition at 30 µM amounted to 17%.

On to `CCC(CC1CC(=O)N(Cc2ccccc2)C1)c1cc(O)c(C(c2ccccc2)C2CC2)c(=O)o1` (stereo not shown) [Example 142, 4-[2-[3-(Cyclopropylphenylmethyl)-4-hydroxy-2-oxo-2H-pyran-6-yl]butyl]-1-(phenylmethyl)-2-pyrrolidinone], for which the inhibition at 0.123 µM is under 10%, the inhibition at 0.37 µM is under 10%, the inhibition at 1.1 µM came to 26.9% and the inhibition at 3.3 µM was 64.3%. Further, the inhibition at 10 µM stood at 88.7% and the inhibition at 30 µM worked out at 104%.

As to `O=c1oc(CC2CCCC2)cc(O)c1C(c1ccccc1)C1CC1` (stereo not shown) [Example 143, 6-(Cyclopentylmethyl)-3-(cyclopropylphenylmethyl)-4-hydroxy-2H-pyran-2-one], the inhibition at 0.123 µM is under 10%, the inhibition at 0.37 µM was under 10%, the inhibition at 1.1 µM is 25.1% and the inhibition at 3.3 µM is 57.9%. Besides, the inhibition at 10 µM worked out at 83.1% and the inhibition at 30 µM came out at 93.8%.

Turning to `O=c1oc(CC2CCOCC2)cc(O)c1C(c1ccccc1)C1CC1` (stereo not shown) [Example 144, 3-(Cyclopropylphenylmethyl)-4-hydroxy-6-[(tetrahydro-2H-pyran-4-yl)methyl]-2H-pyran-2-one], the inhibition at 0.123 µM is under 10%, the inhibition at 0.37 µM is under 10%, the inhibition at 1.1 µM is under 10% and the inhibition at 3.3 µM was under 10%. The inhibition at 10 µM is under 10% and the inhibition at 30 µM worked out at 22.7%.

On to `O=c1oc(CCCF)cc(O)c1C(c1ccccc1)C1CC1` (stereo not shown) [Example 145, 3-(Cyclopropylphenylmethyl)-6-(3-fluoropropyl)-4-hydroxy-2H-pyran-2-one], for which the inhibition at 0.123 µM was under 10%, the inhibition at 0.37 µM is under 10%, the inhibition at 1.1 µM is under 10% and the inhibition at 3.3 µM is 26.6%. Also, the inhibition at 10 µM is 59.7% and the inhibition at 30 µM worked out at 84.4%.

For `CCC(c1cc(O)c(C(c2ccccc2)C2CC2)c(=O)o1)C(O)c1ccccc1` (stereo not drawn) [Example 146, 3-(α-cyclopropylbenzyl)-4-hydroxy-6-(α-ethyl-β-hydroxyphenethyl)-2H-pyran-2-one], the inhibition at 0.123 µM amounted to 36.4%, the inhibition at 0.37 µM worked out at 73.6%, the inhibition at 1.1 µM was found to be 82.7% and the inhibition at 3.3 µM was 87.7%. Besides, the inhibition at 10 µM was determined as 91.2% and the inhibition at 30 µM came out at 95.2%.

As to `Cc1ccc(C(O)Cc2cc(O)c(C(c3ccccc3)C3CC3)c(=O)o2)cc1` (stereo not drawn) [Example 147, 3-(α-cyclopropylbenzyl)-4-hydroxy-6-(β-hydroxy-p-methylphenethyl)-2H-pyran-2-one], the inhibition at 0.123 µM was under 10%, the inhibition at 0.37 µM is under 10%, the inhibition at 1.1 µM amounted to 28.9% and the inhibition at 3.3 µM was determined as 52.6%. Further, the inhibition at 10 µM is 78.1%, the inhibition at 30 µM stood at 89.2% and the inhibition at 100 µM turned out to be 114%.

As to `O=c1oc(CC(O)c2ccc(F)cc2)cc(O)c1C(c1ccccc1)C1CC1` (stereo not drawn) [Example 148, 3-(α-cyclopropylbenzyl)-4-hydroxy-6-(β-hydroxy-p-fluorophenethyl)-2H-pyran-2-one], the inhibition at 0.123 µM was under 10%, the inhibition at 0.37 µM was 22.4%, the inhibition at 1.1 µM was determined as 52% and the inhibition at 3.3 µM came to 80.3%. Also, the inhibition at 10 µM was 91.9%, the inhibition at 30 µM was 89.7%, the inhibition at 100 µM worked out at 130% and the Ki was 161 nM.

Consider `O=c1oc(CC(O)c2ccc(Cl)cc2)cc(O)c1C(c1ccccc1)C1CC1` (stereo not drawn) [Example 149, 3-(α-cyclopropylbenzyl)-4-hydroxy-6-(β-hydroxy-p-chlorophenethyl)-2H-pyran-2-one], for which the inhibition at 0.123 µM is under 10%, the inhibition at 0.37 µM stood at 19.7%, the inhibition at 1.1 µM stood at 46.9% and the inhibition at 3.3 µM came to 73.5%. The inhibition at 10 µM worked out at 98.5%, the inhibition at 30 µM was 103%, the inhibition at 100 µM was found to be 117% and the Ki turned out to be 267 nM.

For `O=c1oc(CC(O)c2cccc(Cl)c2)cc(O)c1C(c1ccccc1)C1CC1` (stereo not drawn) [Example 150, 3-(α-cyclopropylbenzyl)-4-hydroxy-6-(β-hydroxy-m-chlorophenethyl)-2H-pyran-2-one], the inhibition at 0.123 µM is under 10%, the inhibition at 0.37 µM was found to be 13.3%, the inhibition at 1.1 µM came to 25.4% and the inhibition at 3.3 µM came out at 54.1%. Moreover, the inhibition at 10 µM was found to be 75.2%, the inhibition at 30 µM is 91% and the inhibition at 100 µM is 113%.

In the case of `O=c1oc(CC(O)c2ccccc2Cl)cc(O)c1C(c1ccccc1)C1CC1` (stereo not drawn) [Example 151, 3-(α-cyclopropylbenzyl)-4-hydroxy-6-(β-hydroxy-o-chlorophenethyl)-2H-pyran-2-one], the inhibition at 0.123 µM is under 10%, the inhibition at 0.37 µM is under 10%, the inhibition at 1.1 µM amounted to 19.1% and the inhibition at 3.3 µM was determined as 39.8%. The inhibition at 10 µM came to 70.1%, the inhibition at 30 µM was found to be 88.4% and the inhibition at 100 µM was 113%.

Turning to `O=c1oc(CC(O)c2ccoc2)cc(O)c1C(c1ccccc1)C1CC1` (stereo not drawn) [Example 152, 3-(α-cyclopropylbenzyl)-4-hydroxy-6-(2-(furan-3-yl)-2-hydroxyethyl)-2H-pyran-2-one], the inhibition at 0.123 µM is under 10%, the inhibition at 0.37 µM is under 10%, the inhibition at 1.1 µM was 26.4% and the inhibition at 3.3 µM is 48.8%. Besides, the inhibition at 10 µM was determined as 77.6%, the inhibition at 30 µM amounted to 90.5% and the inhibition at 100 µM amounted to 110%.

For the compound `O=c1oc(CC(O)c2ccsc2)cc(O)c1C(c1ccccc1)C1CC1` (stereo not drawn) [Example 153, 3-(α-cyclopropylbenzyl)-4-hydroxy-6-(2-(thiophen-3-yl)-2-hydroxyethyl)-2H-pyran-2-one], the inhibition at 0.123 µM is under 10%, the inhibition at 0.37 µM was determined as 17.7%, the inhibition at 1.1 µM was determined as 40.3% and the inhibition at 3.3 µM was found to be 69%. Also, the inhibition at 10 µM stood at 88.6%, the inhibition at 30 µM came out at 99.7% and the inhibition at 100 µM was 120%.

For the compound `CCC(Cc1ccc(F)cc1)c1cc(O)c(C(c2ccccc2)C2CC2)c(=O)o1` (stereo not drawn) [Example 154, 3-(α-cyclopropylbenzyl)-4-hydroxy-6-(α-ethyl-p-flurorphenethyl)-2H-pyran-2-one], the inhibition at 0.123 µM amounted to 21.9%, the inhibition at 0.37 µM stood at 57.3%, the inhibition at 1.1 µM was 84.1% and the inhibition at 3.3 µM came out at 86.7%. Further, the inhibition at 10 µM stood at 98.1%, the inhibition at 30 µM was determined as 92.9% and the Ki worked out at 39 nM.

With `CCC(Cc1ccc(Cl)cc1)c1cc(O)c(C(c2ccccc2)C2CC2)c(=O)o1` (stereo not drawn) [Example 155, 3-(α-cyclopropylbenzyl)-4-hydroxy-6-(α-ethyl-p-chlorophenethyl)-2H-pyran-2-one], the inhibition at 0.123 µM worked out at 27.6%, the inhibition at 0.37 µM was determined as 46%, the inhibition at 1.1 µM was determined as 79.9% and the inhibition at 3.3 µM worked out at 92.8%. Also, the inhibition at 10 µM came out at 97.2%, the inhibition at 30 µM was found to be 93.5%, the inhibition at 100 µM was 111% and the Ki was 66 nM.

In the case of `CCC(Cc1cccc(Cl)c1)c1cc(O)c(C(c2ccccc2)C2CC2)c(=O)o1` (stereo not drawn) [Example 156, 3-(α-cyclopropylbenzyl)-4-hydroxy-6-(α-ethyl-m-chlorophenethyl)-2H-pyran-2-one], the inhibition at 0.123 µM is under 10%, the inhibition at 0.37 µM was 24.2%, the inhibition at 1.1 µM amounted to 64.4% and the inhibition at 3.3 µM was found to be 82.6%. In addition, the inhibition at 10 µM came out at 87.3%, the inhibition at 30 µM turned out to be 92.3% and the Ki is 65 nM.

On to `CCC(Cc1ccccc1Cl)c1cc(O)c(C(c2ccccc2)C2CC2)c(=O)o1` (stereo not drawn) [Example 157, 3-(α-cyclopropylbenzyl)-4-hydroxy-6-(α-ethyl-o-chlorophenethyl)-2H-pyran-2-one], for which the inhibition at 0.123 µM is under 10%, the inhibition at 0.37 µM turned out to be 17.6%, the inhibition at 1.1 µM came to 42.2% and the inhibition at 3.3 µM stood at 69%. The inhibition at 10 µM was found to be 83.5% and the inhibition at 30 µM stood at 84.9%.
